From ChEMBL document CHEMBL1151135, “The Chemistry of Taxol, a Clinically Useful Anticancer Agent” (1990)
≈ marks a conversion by molar mass, not a printed value.

What follows are molecules tested on KB (assay: Cytotoxicity against human KB cells). Settings: not given.
Assay type: functional

Q: `CC(=O)O[C@H]1C(=O)[C@]2(C)[C@H](O)C[C@H]3OC[C@@]3(OC(C)=O)[C@H]2[C@H](OC(=O)c2ccccc2)[C@]2(O)C[C@H](OC(=O)[C@H](O)[C@@H](NC(=O)c3ccccc3)c3ccccc3)C(C)=C1C2(C)C` was tested. Which ED50 did it give?
A: 3 ×10⁻⁵ ug/ml

Same assay, conditions: Homo sapiens, KB; read-out: ED50 (the source's name)

Q: How did the EC50 turn out when `C=C(C)[C@@]12C[C@H](OC(=O)[C@H](OC(C)=O)[C@@H](NC(=O)c3ccccc3)c3ccccc3)C(C)=C1[C@@H](OC(C)=O)C(=O)[C@]1(C)[C@@H](OC(C)=O)C[C@H](OC(C)=O)[C@@](O)(COC(C)=O)[C@H]1[C@@H]2OC(=O)c1ccccc1` was run?
A: 2.5 µg/mL (≈ 2.55 µM)

Q: With `CC(=O)OC[C@@]1(O)[C@H]2[C@H](OC(=O)c3ccccc3)[C@]3(O)C[C@H](OC(=O)[C@H](O)[C@@H](NC(=O)c4ccccc4)c4ccccc4)C(C)=C([C@@H](OC(C)=O)C(=O)[C@]2(C)[C@@H](O)C[C@@H]1O)C3(C)C` as the molecule, how does the EC50 read?
A: 0.2 µg/mL (≈ 0.229 µM)

Q: With `CC(=O)O[C@H]1C(=O)[C@]2(C)C(=O)C[C@H]3OC[C@@]3(OC(C)=O)[C@H]2[C@H](OC(=O)c2ccccc2)[C@]2(O)C[C@H](OC(=O)C(=O)[C@@H](NC(=O)c3ccccc3)c3ccccc3)C(C)=C1C2(C)C` as the molecule, how does the EC50 read?
A: 12 µg/mL (≈ 14.1 µM)

Q: How did the EC50 turn out when `CC(=O)O[C@H]1C[C@H]2OC[C@@]2(OC(C)=O)[C@H]2[C@H](OC(=O)c3ccccc3)[C@]3(O)C[C@H](OC(=O)[C@H](OC(C)=O)[C@@H](NC(=O)c4ccccc4)c4ccccc4)C(C)=C([C@@H](O)C(=O)[C@]12C)C3(C)C` was run?
A: < 0.01 µg/mL

Q: `CC(=O)O[C@H]1C(=O)[C@@H](C)C([C@@]2(OC(C)=O)CCC(=O)OC2)[C@H](OC(=O)c2ccccc2)[C@]2(O)C[C@H](OC(=O)[C@H](O)[C@@H](NC(=O)c3ccccc3)c3ccccc3)C(C)=C1C2(C)C` (stereo partly specified) was tested. Which EC50 did it give?
A: 2 µg/mL (≈ 2.34 µM)

Q: How did the EC50 turn out when `CC(=O)O[C@H]1C(=O)[C@]2(C)C(=O)C[C@H]3OC[C@@]3(OC(C)=O)[C@H]2[C@H](OC(=O)c2ccccc2)[C@]2(O)C[C@H](OC(=O)[C@H](O)[C@@H](NC(=O)c3ccccc3)c3ccccc3)C(C)=C1C2(C)C` was run?
A: 0.5 µg/mL (≈ 0.587 µM)

Q: How did the EC50 turn out when `CC(=O)O[C@H]1C(=O)[C@]2(C)[C@@H](OC(C)=O)C[C@H]3OC[C@@]3(OC(C)=O)[C@H]2[C@H](OC(=O)c2ccccc2)[C@]2(O)C[C@H](OC(=O)[C@H](OC(C)=O)[C@@H](NC(=O)c3ccccc3)c3ccccc3)C(C)=C1C2(C)C` was run?
A: 0.03 µg/mL (≈ 0.032 µM)

Q: With `CC(=O)O[C@@]12CO[C@@H]1C[C@H](O)[C@@]1(C)C(=O)[C@H](O)C3=C(C)[C@@H](O)C[C@@](O)([C@@H](OC(=O)c4ccccc4)[C@H]21)C3(C)C` as the molecule, how does the EC50 read?
A: 1 µg/mL (≈ 1.84 µM)

Q: With `CC(=O)O[C@@]12CO[C@@H]1C[C@H](O)[C@@]1(C)C(=O)C(=O)C3=C(C)[C@@H](OC(=O)[C@H](O)[C@@H](NC(=O)c4ccccc4)c4ccccc4)C[C@@](O)([C@@H](OC(=O)c4ccccc4)[C@H]21)C3(C)C` as the molecule, how does the EC50 read?
A: 0.02 µg/mL (≈ 0.0247 µM)

Q: For `C=C1[C@@H](O)C[C@@H](OC(C)=O)[C@@]2(C)[C@@H](OC(C)=O)[C@H](OC(C)=O)C3=C(C)[C@@H](OC(C)=O)C[C@@](O)([C@@H](OC(C)=O)[C@H]12)C3(C)C` [DECINNAMOYLTAXININE], which EC50 is on record?
A: 28 µg/mL (≈ 47.1 µM)

The molecules below were run on J774.2 (assay: Cytotoxicity against mouse J774.2 cells). Settings: not given.
Assay type: functional

Q: With `CC(=O)O[C@H]1C(=O)[C@@]2(C)[C@H]([C@H](OC(=O)c3ccccc3)[C@]3(O)C[C@H](OC(=O)[C@H](OC(C)=O)[C@@H](NC(=O)c4ccccc4)c4ccccc4)C(C)=C1C3(C)C)[C@]1(OC(C)=O)CO[C@@H]1C[C@@H]2O` as the molecule, how does the ED50 read?
A: 3 ×10⁻⁷ M

Q: For `CC(=O)O[C@H]1C(=O)[C@]2(C)[C@@H](OC(C)=O)C[C@H]3OC[C@@]3(OC(C)=O)[C@H]2[C@H](OC(=O)c2ccccc2)[C@]2(O)C[C@H](OC(=O)[C@H](O)[C@@H](NC(=O)c3ccccc3)c3ccccc3)C(C)=C1C2(C)C` [PACLITAXEL C7 ACETYLCARBOXYLIC ACID ESTER], which ED50 is on record?
A: 9 ×10⁻⁸ M

Organism: Bos taurus
Assay: Inhibition of bovine brain tubulin assembly assessed as drug level causing decrease in tubulin depolymerization rate
Settings: not given

Q: With `CC(=O)O[C@H]1C(=O)[C@@]2(C)[C@H]([C@H](OC(=O)c3ccccc3)[C@]3(O)C[C@H](OC(=O)[C@H](O)[C@@H](NC(=O)c4ccccc4)c4ccccc4)C(C)=C1C3(C)C)[C@]1(OC(C)=O)CO[C@@H]1C[C@@H]2O` as the molecule, how does the ID50 read?
A: 100 nM

Q: How did the ID50 turn out when `CC(=O)O[C@H]1C(=O)[C@]2(C)[C@@H](OC(=O)c3ccc(C4(C(F)(F)F)N=N4)cc3)C[C@H]3OC[C@@]3(OC(C)=O)[C@H]2[C@H](OC(=O)c2ccccc2)[C@]2(O)C[C@H](OC(=O)[C@H](O)[C@@H](NC(=O)c3ccccc3)c3ccccc3)C(C)=C1C2(C)C` was run?
A: 340 nM

Q: How did the ID50 turn out when `CC(=O)O[C@H]1C(=O)[C@]2(C)[C@@H](OC(=O)c3ccccc3)C[C@H]3OC[C@@]3(OC(C)=O)[C@H]2[C@H](OC(=O)c2ccccc2)[C@]2(O)C[C@H](OC(=O)[C@H](O)[C@@H](NC(=O)c3ccccc3)c3ccccc3)C(C)=C1C2(C)C` was run?
A: 170 nM
